According to patent US20250129430A1, “HIGH ATP-AFFINITY PROTEIN AS THERAPEUTIC TARGET FOR INTRACTABLE CANCER MOLECULAR SUBTYPES AND INHIBITOR THEREOF” (VeraVerse Co., Ltd., priority 2021, published 2025):
Counter-ions that a name gives are not always drawn.

How the values were obtained:
Type in all cases: cell-based, human
SNU16 = assay: Cell viability drug screen, 12-point dose-response AUC; details: SNU16 cells, 72 hours; for area under the viability curve (AUC), normalized: 12-point dose-response
Outline: (§1)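 AUC values represent the area under DMSO-normalized 12-point curves, computed by trapezoid rule and averaged over repeated experiments. Each EMT-type gastric line was exposed to half-log serial concentrations for 72 h at 37 °C, and viability was measured with a Glo luminescence kit.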

AGS = assay: as above; details: 72 hours; for area under the viability curve (AUC), normalized: AGS cells, 12-point dose-response
Outline: (§2)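 AUC comes from 12-point half-log dose–response curves, normalized to DMSO-treated cells and integrated trapezoidally, repeats averaged. Luminescent viability read after 72 h compound exposure at 37 °C; cells plated 5×10^3 per well 24 h before dosing.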

Hs746T = assay: as above; details: 72 hours; for area under the viability curve (AUC), normalized: Hs746T cells, 12-point dose-response
Outline: as §1

SNU638 = assay: as above; details: SNU638 cells, 72 hours; for area under the viability curve (AUC), normalized: 12-point dose-response
Outline: as §1

SNU1967 = assay: as above; details: SNU1967 cells, 72 hours; for area under the viability curve (AUC), normalized: 12-point dose-response
Outline: as §1

SNU719 = assay: as above; details: SNU719 cells, 72 hours; for area under the viability curve (AUC), normalized: 12-point dose-response
Outline: as §2

SNU484 = assay: as above; details: 72 hours; for area under the viability curve (AUC), normalized: SNU484 cells, 12-point dose-response
Outline: as §1

NCC24 = assay: as above; details: NCC24 cells, 72 hours; for area under the viability curve (AUC), normalized: 12-point dose-response
Outline: as §1

MKN1 = assay: as above; details: MKN1 cells, 72 hours; for area under the viability curve (AUC), normalized: 12-point dose-response
Outline: as §1

NCI_N87 = assay: as above; details: NCI_N87 cells, 72 hours; for area under the viability curve (AUC), normalized: 12-point dose-response
Outline: as §1

SNU668 = assay: as above; details: 72 hours; for area under the viability curve (AUC), normalized: SNU668 cells, 12-point dose-response
Outline: as §1

SNU1750 = assay: as above; details: 72 hours; for area under the viability curve (AUC), normalized: SNU1750 cells, 12-point dose-response
Outline: as §1

OCUM1 = assay: as above; details: OCUM1 cells, 72 hours; for area under the viability curve (AUC), normalized: 12-point dose-response
Outline: as §1

MKN74 = assay: as above; details: MKN74 cells, 72 hours; for area under the viability curve (AUC), normalized: 12-point dose-response
Outline: as §2

SNU1 = assay: as above; details: SNU1 cells, 72 hours; for area under the viability curve (AUC), normalized: 12-point dose-response
Outline: as §1

KATO3 = assay: as above; details: KATO3 cells, 72 hours; for area under the viability curve (AUC), normalized: 12-point dose-response
Outline: as §1

SNU601 = assay: as above; details: SNU601 cells, 72 hours; for area under the viability curve (AUC), normalized: 12-point dose-response
Outline: as §1

SNU216 = assay: as above; details: 72 hours; for area under the viability curve (AUC), normalized: SNU216 cells, 12-point dose-response
Outline: as §2

MKN28 = assay: as above; details: MKN28 cells, 72 hours; for area under the viability curve (AUC), normalized: 12-point dose-response
Outline: as §1

YCC11 = assay: as above; details: 72 hours; for area under the viability curve (AUC), normalized: YCC11 cells, 12-point dose-response
Outline: as §1

SK4 = assay: as above; details: 72 hours; for area under the viability curve (AUC), normalized: SK4 cells, 12-point dose-response
Outline: as §1

MKN45 = assay: as above; details: 72 hours; for area under the viability curve (AUC), normalized: MKN45 cells, 12-point dose-response
Outline: as §2

NCC19 = assay: as above; details: NCC19 cells, 72 hours; for area under the viability curve (AUC), normalized: 12-point dose-response
Outline: as §1

NCC20 = assay: as above; details: NCC20 cells, 72 hours; for area under the viability curve (AUC), normalized: 12-point dose-response
Outline: as §1

YCC2 = assay: as above; details: YCC2 cells, 72 hours; for area under the viability curve (AUC), normalized: 12-point dose-response
Outline: as §1

NCC59 = assay: as above; details: NCC59 cells, 72 hours; for area under the viability curve (AUC), normalized: 12-point dose-response
Outline: as §1

YCC3 = assay: as above; details: YCC3 cells, 72 hours; for area under the viability curve (AUC), normalized: 12-point dose-response
Outline: as §1

SNU620 = assay: as above; details: SNU620 cells, 72 hours; for area under the viability curve (AUC), normalized: 12-point dose-response
Outline: as §1

[1] = test system: non-SEM-type gastric cancer cell line; assay: Cell viability drug screen, AUC summary over non-SEM-type lines; details: in the non-SEM-type gastric cancer cell line
FU97 = assay: Cell viability drug screen, 12-point dose-response AUC; parameters: Average Area Under the Viability Curve (AUC), AUC norm value: scale not given here; details: FU97 cells, 72 hours; for area under the viability curve (AUC), normalized: 12-point dose-response
Outline: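 Trapezoidal AUC of a 12-point, DMSO-normalized dose-response curve. Luminescent viability was measured after 72 h of exposure at 37° C to half-log serial dilutions (0.5% DMSO control), dosed 24 h after plating FU97 cells at 5×10^3 per well.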

CN(C)c1ccc(C(=C2C=CC(=[N+](C)C)C=C2)c2ccc(N(C)C)cc2)cc1 [Crystal Violet, Crystal violet]
area under the viability curve (AUC), normalized (SNU16): −0.5668
area under the viability curve (AUC), normalized (AGS): −0.4769
area under the viability curve (AUC), normalized (Hs746T): −0.2085
area under the viability curve (AUC), normalized (SNU638): −0.4956
area under the viability curve (AUC), normalized (SNU1967): 0.3458
area under the viability curve (AUC), normalized (SNU719): 3.076
area under the viability curve (AUC), normalized (SNU484): −0.7108
area under the viability curve (AUC), normalized (NCC24): 0.2743
area under the viability curve (AUC), normalized (MKN1): 0.4211
area under the viability curve (AUC), normalized (NCI_N87): 0.4907
area under the viability curve (AUC), normalized (SNU668): 0.1937
area under the viability curve (AUC), normalized (SNU1750): −0.5514
area under the viability curve (AUC), normalized (OCUM1): 0.7741
area under the viability curve (AUC), normalized (MKN74): −0.5721
area under the viability curve (AUC), normalized (SNU1): −0.5355
area under the viability curve (AUC), normalized (KATO3): 0.911
area under the viability curve (AUC), normalized (SNU601): 0.9442
area under the viability curve (AUC), normalized (SNU216): −0.02818
area under the viability curve (AUC), normalized (MKN28): 0
area under the viability curve (AUC), normalized (YCC11): −0.8996
area under the viability curve (AUC), normalized (SK4): −1.015
area under the viability curve (AUC), normalized (MKN45): 1.101
area under the viability curve (AUC), normalized (NCC19): 0.4873
area under the viability curve (AUC), normalized (NCC20): −1.031
area under the viability curve (AUC), normalized (YCC2): 0.4289
area under the viability curve (AUC), normalized (NCC59): 0.5098
area under the viability curve (AUC), normalized (YCC3): 0.9437
area under the viability curve (AUC), normalized (SNU620): −0.7672
AUC value [1]: high
area under the viability curve (AUC), normalized (FU97): −0.985

CCCCc1oc2ccc(NS(C)(=O)=O)cc2c1C(=O)c1ccc(OCCCN(CCCC)CCCC)cc1 [Dronedarone HCl (Multaq), Dronedarone HCl]
Average Area Under the Viability Curve (AUC), AUC norm value (SNU16): −0.2149
Average Area Under the Viability Curve (AUC), AUC norm value (AGS; AGS cells (non-SEM subtype)): −0.6415
Average Area Under the Viability Curve (AUC), AUC norm value (Hs746T; Hs746T cells (SEM subtype)): −0.03562
Average Area Under the Viability Curve (AUC), AUC norm value (SNU638): −0.5649
Average Area Under the Viability Curve (AUC), AUC norm value (SNU1967): 0.1919
Average Area Under the Viability Curve (AUC), AUC norm value (SNU719): 1.291
Average Area Under the Viability Curve (AUC), AUC norm value (SNU484; SNU484 cells (SEM subtype)): −0.2497
Average Area Under the Viability Curve (AUC), AUC norm value (NCC24): 1.044
Average Area Under the Viability Curve (AUC), AUC norm value (MKN1): 0
Average Area Under the Viability Curve (AUC), AUC norm value (NCI_N87): −0.08952
Average Area Under the Viability Curve (AUC), AUC norm value (SNU668; SNU668 cells (SEM subtype)): 0.4123
Average Area Under the Viability Curve (AUC), AUC norm value (SNU1750; SNU1750 cells (SEM subtype)): 0.06657
Average Area Under the Viability Curve (AUC), AUC norm value (OCUM1): 0.02571
Average Area Under the Viability Curve (AUC), AUC norm value (MKN74): −1.381
Average Area Under the Viability Curve (AUC), AUC norm value (SNU1): 1.295
Average Area Under the Viability Curve (AUC), AUC norm value (KATO3): 0.1721
Average Area Under the Viability Curve (AUC), AUC norm value (SNU601): 3.848
Average Area Under the Viability Curve (AUC), AUC norm value (SNU216; SNU216 cells (non-SEM subtype)): 0.08211
Average Area Under the Viability Curve (AUC), AUC norm value (MKN28): −0.1927
Average Area Under the Viability Curve (AUC), AUC norm value (YCC11; YCC11 cells (SEM subtype)): −0.521
Average Area Under the Viability Curve (AUC), AUC norm value (SK4; SK4 cells (SEM subtype)): −0.3488
Average Area Under the Viability Curve (AUC), AUC norm value (MKN45; MKN45 cells (non-SEM subtype)): 0.6772
Average Area Under the Viability Curve (AUC), AUC norm value (NCC19): −0.3711
Average Area Under the Viability Curve (AUC), AUC norm value (NCC20): −0.2985
Average Area Under the Viability Curve (AUC), AUC norm value (YCC2): −0.08246
Average Area Under the Viability Curve (AUC), AUC norm value (NCC59): 0.6769
Average Area Under the Viability Curve (AUC), AUC norm value (YCC3): 0.8816
Average Area Under the Viability Curve (AUC), AUC norm value (SNU620): −0.3353
AUC value [1]: high
Average Area Under the Viability Curve (AUC), AUC norm value (FU97): 0.3807

COC(=O)Nc1nc2ccc(Sc3ccccc3)cc2[nH]1 [Fenbendazole]
area under the viability curve (AUC), normalized (SNU16): 1.2297
area under the viability curve (AUC), normalized (AGS): −1.16
area under the viability curve (AUC), normalized (Hs746T): 0.5728
area under the viability curve (AUC), normalized (SNU638): −0.3689
area under the viability curve (AUC), normalized (SNU1967): 0.184
area under the viability curve (AUC), normalized (SNU719): 3.382
area under the viability curve (AUC), normalized (SNU484): −0.08111
area under the viability curve (AUC), normalized (NCC24): −0.8488
area under the viability curve (AUC), normalized (MKN1): −0.0568
area under the viability curve (AUC), normalized (NCI_N87): −1.124
area under the viability curve (AUC), normalized (SNU668): 0
area under the viability curve (AUC), normalized (SNU1750): 0.2596
area under the viability curve (AUC), normalized (OCUM1): 1.283
area under the viability curve (AUC), normalized (MKN74): −0.2802
area under the viability curve (AUC), normalized (SNU1): 0.1629
area under the viability curve (AUC), normalized (KATO3): 2.344
area under the viability curve (AUC), normalized (SNU601): 0.599
area under the viability curve (AUC), normalized (SNU216): 1.005
area under the viability curve (AUC), normalized (MKN28): −0.7877
area under the viability curve (AUC), normalized (YCC11): −0.7305
area under the viability curve (AUC), normalized (SK4): −0.2953
area under the viability curve (AUC), normalized (MKN45): 1.407
area under the viability curve (AUC), normalized (NCC19): −0.2779
area under the viability curve (AUC), normalized (NCC20): −0.5211
area under the viability curve (AUC), normalized (YCC2): 0.5695
area under the viability curve (AUC), normalized (NCC59): 1.9513
area under the viability curve (AUC), normalized (YCC3): 1.376
area under the viability curve (AUC), normalized (SNU620): −1.425
AUC value [1]: high
area under the viability curve (AUC), normalized (FU97): −1.854
